Several values for one entry are separate records, joined by “and”; a condition that tells them apart may be missing. Equal entries are not always repeated.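 In this assay, cells in 96-well plates receive the compound at five concentrations for 48 hours. Endpoints are linearly interpolated between the surrounding concentrations. Here, GI50 denotes the concentration required for 50% inhibition of growth. TGI: concentration producing complete growth inhibition.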
Experiments:
Test in all cases: NCI anticancer screen, dose series, 48 h
[1] = tested on: SF-539 CNS
[2] = tested on: K-562 leukemia
[3] = tested on: HCT-15 colon
[4] = tested on: EKVX NSCLC
[5] = tested on: RPMI-8226 leukemia
[6] = tested on: UO-31 renal
[7] = tested on: SF-268 CNS
[8] = tested on: A549 NSCLC
[9] = tested on: HT29 colon
[10] = tested on: PC-3 prostate

## O=C(O)/C=C/c1cnc[nH]1
[1]
  TGI: > 500 µM
[2]
  TGI: > 500 µM
[3]
  GI50: 284 µM and > 500 µM
  TGI: > 500 µM
[4]
  TGI: > 500 µM
[5]
  TGI: > 500 µM
[6]
  TGI: > 500 µM
[7]
  GI50: > 500 µM and 70 µM
  TGI: > 500 µM
[8]
  TGI: > 500 µM
[9]
  TGI: > 500 µM

## O=C(O)c1cncc(C(=O)O)c1
[1]
  TGI: > 100 µM
[2]
  TGI: > 100 µM
[3]
  TGI: > 100 µM
[4]
  TGI: > 100 µM
[5]
  TGI: > 100 µM
[6]
  TGI: > 100 µM
[7]
  TGI: > 100 µM
[8]
  TGI: > 100 µM
[10]
  TGI: > 100 µM
[9]
  TGI: > 100 µM

## CC(=O)[O-].[Ni].c1ccc(/C(=N\Nc2ccccn2)c2ccccn2)cc1
[1]
  TGI: 24.7 µM
[2]
  TGI: 28.1 µM
[3]
  TGI: 41.1 µM
[4]
  GI50: 0.0973 µM
  TGI: 55.5 µM
[5]
  TGI: 16.3 µM
[6]
  TGI: 18.8 µM
[7]
  TGI: 30.1 µM
[8]
  TGI: 49.2 µM
[10]
  TGI: 19.9 µM
[9]
  GI50: 0.056 µM
  TGI: 23.8 µM

## COc1ccc2c[n+](C)c3c4cc(OC)c(OC)cc4ccc3c2c1
[1]
  TGI: 24.9 µM
[2]
  TGI: 34.9 µM
[3]
  TGI: > 70.4 µM
[4]
  TGI: 54.7 µM
[5]
  TGI: 16.1 µM
[6]
  TGI: 84.6 µM
[7]
  TGI: 13.2 µM
[8]
  TGI: 10.3 µM
[10]
  TGI: 16.2 µM
[9]
  TGI: 23.1 µM

## NC(CCCNc1cccc(O)c1)C(=O)O (stereo not given)
[2]
  TGI: > 100 µM
[3]
  TGI: > 100 µM
[4]
  TGI: > 100 µM
[5]
  TGI: > 100 µM
[6]
  TGI: > 100 µM
[7]
  TGI: > 100 µM
[8]
  TGI: > 100 µM
[9]
  TGI: > 100 µM

## CCSc1nc(N2CCCCC2)c2cn[nH]c2n1
[1]
  GI50: 12.4 µM
  TGI: 48.3 µM
[2]
  GI50: 38 µM
  TGI: > 100 µM
[3]
  GI50: > 100 µM
  TGI: > 100 µM
[4]
  GI50: 16.1 µM
  TGI: > 100 µM
[5]
  GI50: 28 µM
  TGI: > 100 µM
[6]
  GI50: 34 µM
  TGI: > 100 µM
[7]
  GI50: 23.6 µM
  TGI: 65.8 µM
[8]
  GI50: 50.5 µM
  TGI: > 100 µM
[10]
  GI50: 20.7 µM
  TGI: 79.1 µM
[9]
  GI50: 66.3 µM
  TGI: > 100 µM

## Cn1c(=O)c2c(ncn2CCSS(=O)(=O)O)n(C)c1=O
[1]
  TGI: > 100 µM
[2]
  TGI: > 100 µM
[3]
  TGI: > 100 µM
[4]
  TGI: > 100 µM
[5]
  TGI: > 100 µM
[6]
  TGI: > 100 µM
[7]
  TGI: > 100 µM
[8]
  TGI: > 100 µM
[10]
  TGI: > 100 µM
[9]
  TGI: > 100 µM

## COc1cccc(C2C(C(=O)O)=C(CO)Oc3cc4c(cc32)OCO4)c1 (stereo not given)
[1]
  TGI: > 100 µM
[2]
  TGI: > 100 µM
[3]
  TGI: > 100 µM
[4]
  TGI: > 100 µM
[5]
  TGI: > 100 µM
[6]
  TGI: > 100 µM
[7]
  TGI: > 100 µM
[9]
  TGI: > 100 µM

## CC(=O)[O-].CC(=O)[O-].O=C(N/N=C/c1cc(Cl)cc(Cl)c1[OH2+])c1ccncc1.[Zn+2]
[1]
  TGI: > 100 µM
[2]
  TGI: > 100 µM
[3]
  TGI: > 100 µM
[4]
  TGI: > 100 µM
[5]
  TGI: > 100 µM
[6]
  TGI: > 100 µM
[7]
  TGI: > 100 µM
[8]
  TGI: > 100 µM

## COc1ccc2c(c1)O[C@H]1c3ccc(O)cc3OC[C@@H]21
[1]
  TGI: 49.9 µM
[2]
  TGI: > 100 µM
[3]
  TGI: > 100 µM
[4]
  TGI: > 100 µM
[5]
  TGI: 89 µM
[6]
  TGI: 72.6 µM
[7]
  TGI: > 100 µM
[8]
  TGI: > 100 µM
[9]
  TGI: > 100 µM

## CC(=O)NC(CCCCNC(=O)OC(C)(C)C)C(=O)O (stereo not given)
[2]
  TGI: > 100 µM
[3]
  TGI: > 100 µM
[4]
  TGI: > 100 µM
[5]
  TGI: > 100 µM
[6]
  TGI: > 100 µM
[7]
  TGI: > 100 µM
[8]
  TGI: > 100 µM
[10]
  TGI: > 100 µM
[9]
  TGI: > 100 µM

## C=C(CN(C)C)C(=O)c1cc(C)ccc1C
[1]
  TGI: 19.2 µM
[2]
  TGI: 8.16 µM
[3]
  TGI: 10.6 µM
[4]
  TGI: 55.3 µM
[5]
  TGI: 5.34 µM
[6]
  TGI: 19.1 µM
[7]
  TGI: 68.3 µM
[8]
  TGI: 41.6 µM
[10]
  TGI: 28.2 µM
[9]
  TGI: 29.3 µM

## O=C(N1CCC(CN=c2cc3n(-c4ccc(Cl)cc4)c4ccccc4nc-3cc2Nc2ccc(Cl)cc2)CC1)N1CC1
[1]
  GI50: 1.63 µM
  TGI: 3.13 µM
[2]
  GI50: 0.286 µM
[3]
  GI50: 0.512 µM
  TGI: 1.87 µM
[4]
  GI50: 1.53 µM
  TGI: 3.22 µM
[7]
  GI50: 1.3 µM
  TGI: 3.69 µM
[8]
  GI50: 0.71 µM
  TGI: 11.7 µM
[10]
  GI50: 1.63 µM
  TGI: 3.38 µM
[9]
  GI50: 0.204 µM
  TGI: 0.547 µM

## O=c1[nH]cc(N(CCCl)CCCl)c(=O)[nH]1
[1]
  TGI: 60.5 µM
[2]
  TGI: 283 µM
[3]
  TGI: 251 µM
[4]
  TGI: 230 µM
[5]
  TGI: 284 µM
[6]
  TGI: 201 µM
[7]
  TGI: 192 µM
[8]
  TGI: 314 µM
[10]
  TGI: 188 µM
[9]
  TGI: 306 µM

## O=NNc1cnccn1
[1]
  TGI: > 1250 µM
[2]
  TGI: > 1250 µM
[3]
  TGI: > 1250 µM
[4]
  TGI: > 1250 µM
[5]
  TGI: > 1250 µM
[6]
  TGI: > 1250 µM
[7]
  TGI: > 1250 µM
[8]
  TGI: > 1250 µM
[10]
  TGI: > 1250 µM
[9]
  TGI: > 1250 µM

## c1ccc(SC(Sc2ccccc2)c2ccc3c(c2)OCO3)cc1
[2]
  TGI: > 100 µM
[3]
  TGI: > 100 µM
[4]
  TGI: > 100 µM
[6]
  TGI: > 100 µM
[7]
  TGI: > 100 µM
[8]
  TGI: > 100 µM
[10]
  TGI: > 100 µM
[9]
  TGI: > 100 µM

## CCOC(=O)C1(C(=O)OCC)CSC1
[2]
  TGI: > 100 µM
[3]
  TGI: > 100 µM
[6]
  TGI: > 100 µM
[7]
  TGI: > 100 µM
[8]
  TGI: > 100 µM
[10]
  TGI: > 100 µM
[9]
  TGI: > 100 µM
